How the values were obtained:
Type in all cases: biochemical
[1] = target: T1, Arabidopsis HPPD (SEQ ID: 53) (Arabidopsis thaliana, UniProt P93836); assay: HPPD activity assay, Arabidopsis wild-type HPPD; parameters: key to Normalized tolerance index TI: tolerance index relative to Arabidopsis wild-type HPPD (= 1)
T1 construct: His6 (N); made in house; host or cells: E. coli BL21 (DE3)
T1 sequence (P93836 1-445): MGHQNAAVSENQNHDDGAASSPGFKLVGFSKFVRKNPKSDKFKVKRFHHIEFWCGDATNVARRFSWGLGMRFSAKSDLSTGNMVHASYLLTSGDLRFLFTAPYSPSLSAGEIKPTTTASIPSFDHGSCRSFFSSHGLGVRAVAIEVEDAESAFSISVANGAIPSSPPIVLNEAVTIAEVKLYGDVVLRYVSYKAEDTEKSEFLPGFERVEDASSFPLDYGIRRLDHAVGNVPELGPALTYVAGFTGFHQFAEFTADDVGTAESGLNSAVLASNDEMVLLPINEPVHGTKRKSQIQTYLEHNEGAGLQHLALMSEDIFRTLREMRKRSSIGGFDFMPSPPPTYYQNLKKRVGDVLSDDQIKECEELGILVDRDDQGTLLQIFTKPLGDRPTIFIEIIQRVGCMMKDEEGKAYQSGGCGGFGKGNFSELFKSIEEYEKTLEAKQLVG
Protocol: (§1) HPPD produces homogentisic acid and CO2 from 4-hydroxyphenylpyruvate (4-HPP) and O2. The activity assay for HPPD is based on the analysis of homogentisic acid by reversed phase HPLC.
(§2) The assay mixture can contain 150 mM potassium phosphate buffer pH 7.0, 50 mM L-ascorbic acid, 1 μM FeSO4 and 7 μg of purified enzyme in a total volume of 1 ml.
(§3) Inhibitors are dissolved in DMSO (dimethylsulfoxide) to a concentration of 20 mM or 0.5 mM, respectively. From this stock solution serial five-fold dilutions are prepared in DMSO, which are used in the assay. The respective inhibitor solution accounts for 1% of the assay volume. […] After a preincubation of 30 min the reaction is started by adding 4-HPP to a final concentration of 0.1 mM. The reaction is allowed to proceed for 120 min at room temperature. The reaction is stopped by addition of 100 μl of 4.5 M phosphoric acid.
(§4) Activities are normalized by setting the uninhibited enzyme activity to 100%. IC50 values are calculated using non-linear regression.
(§5) The assay mixture can contain 150 mM potassium phosphate buffer pH 7.0, 50 mM L-ascorbic acid, 100 μM Catalase (Sigma-Aldrich), 1 μM FeSO4 and 0.2 units of purified HPPD enzyme in a total volume of 505 μl. 1 unit is defined as the amount of enzyme that is required to produce 1 nmol of HGA per minute at 20° C.
(§6) Inhibitors are dissolved in DMSO (dimethylsulfoxide) to a concentration of 0.5 mM. From this stock solution serial five-fold dilutions are prepared in DMSO, which are used in the assay. The respective inhibitor solution accounts for 1% of the assay volume. […] Activities are normalized by setting the uninhibited enzyme activity to 100%. IC50 values are calculated using non-linear regression.
(§7) Using methods which are described in the above examples or well known in the art, purified, recombinant wildtype HPPD enzymes are characterized with respect to their kinetic properties and sensitivity towards HPPD inhibiting herbicides. Apparent michaelis constants (Km) and maximal reaction velocities (Vmax) are calculated by non-linear regression with the software GraphPad Prism 5 (GraphPad Software, La Jolla, USA) using a substrate inhibition model.
(§8) Field performance of the HPPD enzyme, which is used as a herbicide tolerance trait, may depend not only on its lack of sensitivity towards HPPD inhibiting herbicides but also on its activity. To assess the potential performance of a herbicide tolerance trait a tolerance index (TI) is calculated using the following formula: […]
Easy comparison and ranking of each trait is enabled by normalizing tolerance indexes on Arabidopsis wild-type HPPD.

Hordeum HPPD (SEQ ID: 2) = target: T2, Hordeum HPPD (SEQ ID: 2) (Hordeum vulgare, UniProt O48604, A164G/R146V/R147D/R148G); assay: HPPD activity assay, Hordeum wild-type HPPD
T2 construct: His (N); made in house; host or cells: E. coli BL21 (DE3)
T2 sequence (O48604 whole entry R146V/R147D/R148G/A164G): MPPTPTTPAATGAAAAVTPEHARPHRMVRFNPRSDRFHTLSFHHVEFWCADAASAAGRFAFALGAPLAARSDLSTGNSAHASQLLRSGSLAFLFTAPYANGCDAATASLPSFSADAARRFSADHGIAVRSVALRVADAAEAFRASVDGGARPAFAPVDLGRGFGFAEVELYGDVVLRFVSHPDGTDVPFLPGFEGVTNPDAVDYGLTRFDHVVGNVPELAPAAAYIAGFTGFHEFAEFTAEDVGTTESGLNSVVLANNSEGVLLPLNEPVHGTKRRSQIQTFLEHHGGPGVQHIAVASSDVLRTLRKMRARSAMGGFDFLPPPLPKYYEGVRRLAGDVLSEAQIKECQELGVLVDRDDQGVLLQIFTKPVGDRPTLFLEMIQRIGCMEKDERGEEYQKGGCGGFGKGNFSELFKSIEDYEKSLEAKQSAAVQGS
Protocol: as §1, §2, §3, §4, §5, §6, §7, §8

[2] = target: T3, Hordeum HPPD variant L353M, P321R, V212I, L334E (Hordeum vulgare, UniProt O48604, L334E/L353M/P321R/V212I); assay: HPPD activity assay, Hordeum HPPD mutant L353M, P321R, V212I, L334E; settings: normalized on Hordeum wild-type HPPD
T3 construct: His (N); made in house; host or cells: E. coli BL21 (DE3)
T3 sequence (O48604 whole entry R146V/R147D/R148G/A164G/V212I/P321R/L334E/L353M): as the sequence (O48604 whole entry R146V/R147D/R148G/A164G) above, with V212I, P321R, L334E, L353M counted along it
Protocol: as §1, §2, §3, §4, §5, §6
(§9) Purified, mutant HPPD enzymes are obtained by the methods described above. Dose response and kinetic measurements are carried out using the described HPPD activity assay. Apparent michaelis constants (Km) and maximal reaction velocities (Vmax) are calculated by non-linear regression with the software GraphPad Prism 5 (GraphPad Software, La Jolla, USA) using a substrate inhibition model.
(§10) Field performance of the optimized HPPD enzyme, which is used as a herbicide tolerance trait may depend not only on its lack of sensitivity towards HPPD inhibiting herbicides but also on its activity. To assess the potential performance of a herbicide tolerance trait a tolerance index (TI) is calculated using the following formula: […]
(§11) Easy comparison and ranking of each trait is enabled by normalizing tolerance indexes on Arabidopsis or Hordeum wild-type HPPD.

[3] = target: T4, Hordeum HPPD variant L353M, P321R, L320N (Hordeum vulgare, UniProt O48604, L320N/L353M/P321R); assay: HPPD activity assay, Hordeum HPPD mutant L353M, P321R, L320N; settings: normalized on Hordeum wild-type HPPD
T4 construct: His (N); made in house; host or cells: E. coli BL21 (DE3)
T4 sequence (O48604 whole entry R146V/R147D/R148G/A164G/L320N/P321R/L353M): as the sequence (O48604 whole entry R146V/R147D/R148G/A164G) above, with L320N, P321R, L353M counted along it
Protocol: as §1, §2, §3, §4, §5, §6, §9, §10, §11

[4] = target: T5, Hordeum HPPD variant L320N (Hordeum vulgare, UniProt O48604, A164G/L320N/R146V/R147D/R148G); assay: HPPD activity assay, Hordeum HPPD mutant L320N; settings: normalized on Hordeum wild-type HPPD
T5 construct: His (N); made in house; host or cells: E. coli BL21 (DE3)
T5 sequence (O48604 whole entry R146V/R147D/R148G/A164G/L320N): as the sequence (O48604 whole entry R146V/R147D/R148G/A164G) above, with L320N counted along it
Protocol: as §1, §2, §3, §4, §5, §6, §9, §10, §11

[5] = target: T6, Arabidopsis HPPD variant M335H, P336A, E363Q (Arabidopsis thaliana, UniProt P93836, E363Q/M335H/P336A); assay: HPPD activity assay, Arabidopsis HPPD mutant M335H, P336A, E363Q; settings: normalized on Arabidopsis wild-type HPPD
T6 construct: PCR-based site directed mutagenesis of pEXP5-NT/TOPO®-AtHPPD is done; His6 (N); made in house; host or cells: E. coli BL21 (DE3)
T6 sequence (P93836 whole entry M335H/P336A/E363Q): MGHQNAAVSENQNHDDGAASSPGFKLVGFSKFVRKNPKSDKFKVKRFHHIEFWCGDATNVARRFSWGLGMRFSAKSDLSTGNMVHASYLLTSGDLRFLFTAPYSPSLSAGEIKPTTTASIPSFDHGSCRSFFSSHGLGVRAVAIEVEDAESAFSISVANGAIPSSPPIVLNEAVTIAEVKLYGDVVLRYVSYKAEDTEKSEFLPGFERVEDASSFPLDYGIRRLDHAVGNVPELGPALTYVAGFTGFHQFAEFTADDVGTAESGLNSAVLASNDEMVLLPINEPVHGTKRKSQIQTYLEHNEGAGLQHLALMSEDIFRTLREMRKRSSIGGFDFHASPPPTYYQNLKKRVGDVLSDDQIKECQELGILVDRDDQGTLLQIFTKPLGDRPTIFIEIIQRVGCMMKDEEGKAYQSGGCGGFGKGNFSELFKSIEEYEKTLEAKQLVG
Protocol: as §1, §2, §3, §4, §5
Inhibitors are dissolved in DMSO (dimethylsulfoxide) to a concentration of 0.5 mM. […] IC50 values are calculated using non-linear regression. […]
Purified, mutant HPPD enzymes are obtained by the methods described above. […] Apparent michaelis constants (Km) and maximal reaction velocities (Vmax) are calculated by non-linear regression with the software GraphPad Prism 5 (GraphPad Software, La Jolla, USA) using a substrate inhibition model.
as §10

[6] = target: T7, Hordeum HPPD variant L353M, P321R, V212I (Hordeum vulgare, UniProt O48604, L353M/P321R/V212I); assay: HPPD activity assay, Hordeum HPPD mutant L353M, P321R, V212I; settings: normalized on Hordeum wild-type HPPD
T7 construct: His (N); made in house; host or cells: E. coli BL21 (DE3)
T7 sequence (O48604 whole entry R146V/R147D/R148G/A164G/V212I/P321R/L353M): as the sequence (O48604 whole entry R146V/R147D/R148G/A164G) above, with V212I, P321R, L353M counted along it
Protocol: as §1, §2, §3, §4, §5, §6, §9, §10, §11

[7] = target: T8, Hordeum HPPD variant G407C (Hordeum vulgare, UniProt O48604, A164G/G407C/R146V/R147D/R148G); assay: HPPD activity assay, Hordeum HPPD mutant G407C; settings: normalized on Hordeum wild-type HPPD
T8 construct: His (N); made in house; host or cells: E. coli BL21 (DE3)
T8 sequence (O48604 whole entry R146V/R147D/R148G/A164G/G407C): as the sequence (O48604 whole entry R146V/R147D/R148G/A164G) above, with G407C counted along it
Protocol: as §1, §2, §3, §4, §5, §6, §9, §10, §11

[8] = target: T9, Hordeum HPPD variant L334E (Hordeum vulgare, UniProt O48604, A164G/L334E/R146V/R147D/R148G); assay: HPPD activity assay, Hordeum HPPD mutant L334E; settings: normalized on Hordeum wild-type HPPD
T9 construct: His (N); made in house; host or cells: E. coli BL21 (DE3)
T9 sequence (O48604 whole entry R146V/R147D/R148G/A164G/L334E): as the sequence (O48604 whole entry R146V/R147D/R148G/A164G) above, with L334E counted along it
Protocol: as §1, §2, §3, §4, §5, §6, §9, §10, §11

[9] = target: T10, Hordeum HPPD variant L320Q (Hordeum vulgare, UniProt O48604, A164G/L320Q/R146V/R147D/R148G); assay: HPPD activity assay, Hordeum HPPD mutant L320Q; settings: normalized on Hordeum wild-type HPPD
T10 construct: His (N); made in house; host or cells: E. coli BL21 (DE3)
T10 sequence (O48604 whole entry R146V/R147D/R148G/A164G/L320Q): as the sequence (O48604 whole entry R146V/R147D/R148G/A164G) above, with L320Q counted along it
Protocol: as §1, §2, §3, §4, §5, §6, §9, §10, §11

[10] = target: T11, Hordeum HPPD variant V212L (Hordeum vulgare, UniProt O48604, A164G/R146V/R147D/R148G/V212L); assay: HPPD activity assay, Hordeum HPPD mutant V212L; settings: normalized on Hordeum wild-type HPPD
T11 construct: His (N); made in house; host or cells: E. coli BL21 (DE3)
T11 sequence (O48604 whole entry R146V/R147D/R148G/A164G/V212L): as the sequence (O48604 whole entry R146V/R147D/R148G/A164G) above, with V212L counted along it
Protocol: as §1, §2, §3, §4, §5, §6, §9, §10, §11

[11] = target: T12, Hordeum HPPD variant L320H, P321A (Hordeum vulgare, UniProt O48604, L320H/P321A); assay: HPPD activity assay, Hordeum HPPD mutant L320H, P321A; settings: normalized on Hordeum wild-type HPPD
T12 construct: His (N); made in house; host or cells: E. coli BL21 (DE3)
T12 sequence (O48604 whole entry R146V/R147D/R148G/A164G/L320H/P321A): as the sequence (O48604 whole entry R146V/R147D/R148G/A164G) above, with L320H, P321A counted along it
Protocol: as §1, §2, §3, §4, §5, §6, §9, §10, §11

Work on O=C(O)C(=O)Cc1ccc(O)cc1 [Inhibitor 4-HPP, 4-hydroxyphenylpyruvate, reference compound] yielded a Km ([1]; Arabidopsis HPPD, substrate, read-out: michaelis constant Km (4-HPP)) of 13 µM and a Km (Hordeum HPPD (SEQ ID: 2); Hordeum HPPD, substrate, read-out: michaelis constant Km (4-HPP)) of 26 µM.

In the case of CC1(C)c2cccnc2C(O)=C(c2ccc(Br)cc2C(F)(F)F)S1(=O)=O [Inhibitor 5, 7-[4-bromo-2-(trifluoromethyl)phenyl]-5,5-dimethyl-6,6-dioxo-thiopyrano[4,3-b]pyridin-8-ol], the “Normalized tolerance index TI” value [2] was 3.4, the “Normalized tolerance index TI” value [3] was 3.2 and the “Normalized tolerance index TI” value [4] was 2.4. The “Normalized tolerance index TI” value [5] was 0.2, the “Normalized tolerance index TI” value [6] was 3.3 and the “Normalized tolerance index TI” value ([1]; Arabidopsis HPPD Wildtype, normalized on Arabidopsis wild-type HPPD, Table 15) was 1. The “Normalized tolerance index TI” value [7] was 4.3, the “Normalized tolerance index TI” value [8] was 2.1 and the “Normalized tolerance index TI” value (Hordeum HPPD (SEQ ID: 2); Hordeum HPPD Wildtype, normalized on Hordeum wild-type HPPD) was 1. The “Normalized tolerance index TI” value [9] was 2.9, the “Normalized tolerance index TI” value [10] was 1.1 and the “Normalized tolerance index TI” value [11] was 6.6.

Reference: patent US20140357487A1, “PLANTS HAVING INCREASED TOLERANCE TO HERBICIDES” (BASF SE, priority 2011, published 2014)
